Assay results reported in patent publication US7396837B2, “Antitumoral analogs of lamellarins” (Pharma Mar, S.A.U., priority 2002, dated 2008).

Key:
Format in all cases: cell-based
HT-29 = assay: SRB colorimetric cell growth inhibition assay, HT-29; conditions: Homo sapiens, HT-29, HT-29; for GI50: GI=growth inhibition, read-out: GI50 HT-29; for CC50: cell killing (cytotoxic effect), read-out: LC50 HT-29; for IC (TGI): total growth inhibition (cytostatic effect), read-out: TGI HT-29
Description: (§1) The finality of these assays is to interrupt the growth of an “in vitro” tumor cell culture by means a continued exhibition of the cells to the sample to be testing.
(§2) A colorimetric type of assay, using sulforhodamine B (SRB) reaction has been adapted for a quantitative measurement of cell growth and viability (following the technique described by P. A. Skehan, et al., J. Natl. Cancer Inst. 1990, 82, 1107-1112).
(§3) This form of assay employs 96 well cell culture microplates of 9 mm diameter (T. Mosmann et al., J. of Immunological Methods 1983, 65, 55-63; G. T. Faircloth et al., J. of Tissue and Culture Methods 1988, 11, 201-205).
(§4) Most of the cell lines are obtained from American Type Culture Collection (ATCC) derived from different human cancer types.
(§5) The values for mean +/− SD of data from triplicate wells are calculated. Some parameters for cellular responses can be calculated: GI=growth inhibition, TGI=total growth inhibition (cytostatic effect) and LC=cell killing (cytotoxic effect).

LoVo = assay: SRB colorimetric cell growth inhibition assay, LoVo; conditions: Homo sapiens, LoVo; for GI50: GI=growth inhibition, read-out: GI50 LOVO; for CC50: cell killing (cytotoxic effect), read-out: LC50 LOVO; for IC (TGI): total growth inhibition (cytostatic effect), read-out: TGI LOVO
Description: as §1, §2, §3, §4, §5

DU-145 = assay: SRB colorimetric cell growth inhibition assay, DU-145; conditions: Homo sapiens, DU-145, DU-145; for GI50: GI=growth inhibition, read-out: GI50 DU-145; for CC50: cell killing (cytotoxic effect), read-out: LC50 DU-145; for IC (TGI): total growth inhibition (cytostatic effect), read-out: TGI DU-145
Description: as §1, §2, §3, §4, §5

SK-BR-3 = assay: SRB colorimetric cell growth inhibition assay, SK-BR-3; conditions: Homo sapiens, SK-BR-3, SK-BR-3; for GI50: GI=growth inhibition, read-out: GI50 SK-BR-3; for CC50: cell killing (cytotoxic effect), read-out: LC50 SK-BR-3; for IC (TGI): total growth inhibition (cytostatic effect), read-out: TGI SK-BR-3
Description: as §1, §2, §3, §4, §5

PANC-1 = assay: SRB colorimetric cell growth inhibition assay, PANC-1; conditions: Homo sapiens, PANC-1, PANC-1; for GI50: GI=growth inhibition, read-out: GI50 PANC-1; for CC50: cell killing (cytotoxic effect), read-out: LC50 PANC-1; for IC (TGI): total growth inhibition (cytostatic effect), read-out: TGI PANC-1
Description: as §1, §2, §3, §4, §5

IGROV-ET = assay: SRB colorimetric cell growth inhibition assay, IGROV-ET (ET-743 resistant); conditions: Homo sapiens, IGROV-ET; for GI50: GI=growth inhibition, read-out: GI50 IGROV-ET; for CC50: cell killing (cytotoxic effect), read-out: LC50 IGROV-ET; for IC (TGI): total growth inhibition (cytostatic effect), read-out: TGI IGROV-ET
Description: as §1, §2, §3, §4, §5

HeLa-APL = assay: SRB colorimetric cell growth inhibition assay, HeLa-APL (aplidine resistant); conditions: Homo sapiens, HELA-APL; for GI50: GI=growth inhibition, read-out: GI50 HELA-APL; for CC50: cell killing (cytotoxic effect), read-out: LC50 HELA-APL; for IC (TGI): total growth inhibition (cytostatic effect), read-out: TGI HELA-APL
Description: as §1, §2, §3, §4, §5

LoVo-Dox = assay: SRB colorimetric cell growth inhibition assay, LoVo-Dox (MDR); conditions: Homo sapiens, LOVO-DOX; for GI50: GI=growth inhibition, read-out: GI50 LOVO-DOX; for CC50: cell killing (cytotoxic effect), read-out: LC50 LOVO-DOX; for IC (TGI): total growth inhibition (cytostatic effect), read-out: TGI LOVO-DOX
Description: as §1, §2, §3, §4, §5

SK-MEL-28 = assay: SRB colorimetric cell growth inhibition assay, SK-MEL-28; conditions: Homo sapiens, SK-MEL-28, MEL-28; for GI50: GI=growth inhibition, read-out: GI50 MEL-28; for CC50: cell killing (cytotoxic effect), read-out: LC50 MEL-28; for IC (TGI): total growth inhibition (cytostatic effect), read-out: TGI MEL-28
Description: as §1, §2, §3, §4, §5

IGROV = assay: SRB colorimetric cell growth inhibition assay, IGROV; conditions: Homo sapiens, IGROV; for GI50: GI=growth inhibition, read-out: GI50 IGROV; for CC50: cell killing (cytotoxic effect), read-out: LC50 IGROV; for IC (TGI): total growth inhibition (cytostatic effect), read-out: TGI IGROV
Description: as §1, §2, §3, §4, §5

A-549 = assay: SRB colorimetric cell growth inhibition assay, A-549; conditions: Homo sapiens, A549, A-549; for GI50: GI=growth inhibition, read-out: GI50 A-549; for CC50: cell killing (cytotoxic effect), read-out: LC50 A-549; for IC (TGI): total growth inhibition (cytostatic effect), read-out: TGI A-549
Description: as §1, §2, §3, §4, §5

HeLa = assay: SRB colorimetric cell growth inhibition assay, HeLa; conditions: Homo sapiens, HeLa; for GI50: GI=growth inhibition, read-out: GI50 HELA; for CC50: cell killing (cytotoxic effect), read-out: LC50 HELA; for IC (TGI): total growth inhibition (cytostatic effect), read-out: TGI HELA
Description: as §1, §2, §3, §4, §5

Structure (SMILES) | GI50 (HT-29) [µM] | CC50 (HT-29) [µM] | IC (TGI) (HT-29) [µM] | GI50 (LoVo) [µM] | CC50 (LoVo) [µM] | IC (TGI) (LoVo) [µM] | GI50 (DU-145) [µM] | CC50 (DU-145) [µM] | IC (TGI) (DU-145) [µM] | GI50 (SK-BR-3) [µM] | CC50 (SK-BR-3) [µM] | IC (TGI) (SK-BR-3) [µM] | GI50 (PANC-1) [µM] | CC50 (PANC-1) [µM] | IC (TGI) (PANC-1) [µM] | GI50 (IGROV-ET) [µM] | CC50 (IGROV-ET) [µM] | IC (TGI) (IGROV-ET) [µM] | GI50 (HeLa-APL) [µM] | CC50 (HeLa-APL) [µM] | other results
COc1cc(-c2c3c4cc(OC)c(OC(C)C)cc4oc(=O)c3n3ccc4c(OC(C)C)c(OC)c(OC)cc4c23)ccc1OC(C)C [Compound 27] | 0.144 | 15.2 | 2.17 | 0.27 | 15.2 | 2.17 | 0.976 | 12.6 | 3.95 | 0.881 | 14.1 | 3.25 | 4.41 | 15.2 | 13 | 10.4 | 15.2 | 15.2 | 13 | 15.2 | IC (TGI) (HeLa-APL): 15.2 µM; GI50 (LoVo-Dox): 15.2 µM; CC50 (LoVo-Dox): 15.2 µM; IC (TGI) (LoVo-Dox): 15.2 µM; GI50 (SK-MEL-28): 4.47 µM; CC50 (SK-MEL-28): 15.2 µM; IC (TGI) (SK-MEL-28): 9.35 µM; GI50 (IGROV): 1.15 µM; CC50 (IGROV): 15.2 µM; IC (TGI) (IGROV): 5.06 µM; GI50 (A-549): 5.49 µM; CC50 (A-549): 15.2 µM; IC (TGI) (A-549): 15.2 µM; GI50 (HeLa): 4.04 µM; CC50 (HeLa): 15.2 µM; IC (TGI) (HeLa): 9.47 µM
CCCCCCCC(=O)Oc1ccc(-c2c3n(c4c(=O)oc5cc(OC(=O)CCCCCCC)c(OC)cc5c24)CCc2cc(OC(=O)CCCCCCC)c(OC)cc2-3)cc1OC [Compound 28] | 0.111 | 11.4 | 1.2 | 0.634 | 11.4 | 5.16 | 0.315 | 7.32 | 1.47 | 0.941 | 11.4 | 4.73 | 1.91 | 11.4 | 11.4 | 11.4 | 11.4 | 11.4 | 9.53 | 11.4 | IC (TGI) (HeLa-APL): 11.4 µM; GI50 (LoVo-Dox): 11.4 µM; CC50 (LoVo-Dox): 11.4 µM; IC (TGI) (LoVo-Dox): 11.4 µM; GI50 (SK-MEL-28): 2.24 µM; CC50 (SK-MEL-28): 11.4 µM; IC (TGI) (SK-MEL-28): 7.28 µM; GI50 (IGROV): 1.64 µM; CC50 (IGROV): 9.61 µM; IC (TGI) (IGROV): 3.97 µM; GI50 (A-549): 1.39 µM; CC50 (A-549): 11.4 µM; IC (TGI) (A-549): 11.4 µM; GI50 (HeLa): 2.76 µM; CC50 (HeLa): 11.4 µM; IC (TGI) (HeLa): 9.24 µM
